Measurements from article PMC9174720, “Evaluation of antioxidant and cytotoxic properties of phenolic N-acylhydrazones: structure–activity relationship” (Royal Society Open Science, 2022).
Read-outs that look alike come from different tables or passages of the source.

What was measured:
[1] = DPPH radical scavenging assay; assay type: biochemical; conditions: for IC50: DPPH 0.05 mM in methanol, incubated 20 and 60 min, absorbance at 517 nm, mean ± s.d. of three measurements, read-out: IC50 for inactivation of DPPH free radical; for stoichiometric factor (SF): SF=[DPPH]/(2×IC50), good antioxidant if SF ≥ 2
Procedure: The antioxidant screening of all PheNAHs was performed using the 2,2-diphenyl-1-picrylhydrazyl (DPPH) method. The solution of DPPH radical in methanol (0.05 mM, 1 ml) was mixed with the tested compound (20 µl of different concentrations in dimethyl sulfoxide (DMSO) and 980 µl of methanol). The reaction mixture was incubated in the dark at room temperature for 20 and 60 min after which the absorbance of the sample was measured spectrophotometrically at 517 nm. All measurements were performed in triplicate. Methanol was used as a control solution, whereas quercetin and nordihydroguaiaretic acid (NDGA) were used as reference compounds. […] IC50 is defined as the minimal concentration of tested compound required for reaching 50% of a maximum scavenging capacity. The results were presented as mean values ± standard deviation (s.d.) of three independent measurements. The stoichiometric factor (SF) was calculated for all compounds using the equation [45, 46]:1 SF=[DPPH]/(2×IC50)

HCT-116 = assay: MTT cytotoxicity assay on HCT-116 cells; assay type: cell-based, human; conditions: for IC50: Homo sapiens, HCT-116 cell line, read-out: Growth inhibitory effects IC50; for selectivity index (SI): ratio of IC50 values of MRC-5 and HCT-116, values greater than 1 indicate selectivity toward cancer cell line; for cytotoxic effect in words (from IC50 values): MTT
Procedure: (§1) In this in vitro study, we investigated the influence of PheNAHs on two model systems: human colorectal carcinoma HCT-116 and human healthy fibroblast cell line MRC-5. Both cell lines of low passages were purchased from the European collection of authenticated cell cultures (ECACC) and were cultivated in Dulbecco's Modified Eagle Medium (DMEM) (Sigma, D5796) cell culture medium supplemented with 10% foetal bovine serum (Sigma, F4135-500 ML) and 1% penicillin/streptomycin (Sigma, P4333-100 ML) in 75 cm^2 culture flasks. The cells were maintained according to the standardized procedure in the incubator with humidified atmosphere supplemented with 5% CO2 at a physiological temperature of 37°C, and after a few passages and a confluence of about 80%, the cells were used in all in vitro experiments (Laboratory for Bioengineering protocol CB-003).
(§2) The ability of synthesized compounds to inhibit the growth of two different cell lines was estimated by a standardized 3-(4,5-dimethylthiazol-2-yl)-2,5-diphenyltetrazolium bromide (MTT) assay (Laboratory for Bioengineering protocol CB-005). The approximative number of 10 000 cells per well (in 96-well microplates) were seeded and kept in the incubator for 24 h to enable cell adhesion. After the incubation period, the cells were treated with investigated compounds in the concentration range from 0,1 to 500 µM dissolved in DMEM. Cytotoxic effect was evaluated 24 and 72 h from treatment by following the number of survived cells, thus the cell viability. MTT assay is based on spectrophotometric measurement of reduction rate of 3-(4,5-dimethylthiazol-2-yl)-2,5-diphenyltetrazolium bromide (MTT, Acros Organics, 158990010) to purple formazan crystals subsequently dissolved in DMSO (Fisher Chemical, D/4121/PB15) on a microplate reader (Rayto 2100C) at 550 nm. The percentage of the survived (viable) cells was estimated by dividing the absorbance of the treatment with the absorbance of the control (non-treated) cells and multiplied by 100 [47]. As positive controls, Leucovorin and Irinotecan were selected as compounds used in colon cancer treatment.
(§3) Biological activity was the result of two individual experiments, performed in triplicate for each dose. Statistical analyses were determined using the one-way analysis of variance (ANOVA) test for multiple comparisons, SPSS (Chicago, IL) statistical software package (SPSS for Windows, v. 17, 2008). The IC50 values were calculated from the dose curves by a computer program (CalcuSyn). IC50 values represent the half-maximal inhibitory concentration of tested compounds to measure the influence in inhibition of cell growth for 50%. […] At the beginning of the process of selecting the anti-cancer drug candidate, it is necessary to make a rough preselection between the tested substances. In vitro analysis on cancer and healthy cell lines is quantified in different ways, selectivity also. The selectivity index (SI) of tested drugs usually refers to the simple ratio of IC50 values determined for cancer and healthy cells. Also, the SI can be used for the expression of many other examples, such as SI between antibacterial and antiviral effect, discrimination of the drugs effect between many cancer cell lines, etc. In our experimentation, the values greater than ‘1’ indicate selectivity of the tested substance toward cancer cell line.

MRC-5 = assay: MTT cytotoxicity assay on MRC-5 cells; assay type: cell-based; conditions: Homo sapiens, MRC5, MRC-5 cell line, read-out: Growth inhibitory effects IC50
Procedure: as §1, §2, §3

Row | SMILES | IC50 [1] | IC50 (HCT-116; 24 h exposure) | IC50 (HCT-116; 72 h exposure) | IC50 (MRC-5; 24 h exposure) | IC50 (MRC-5; 72 h exposure) | stoichiometric factor (SF) [1] | selectivity index (SI) (HCT-116; after 72 h exposure) | selectivity index (SI) (HCT-116; after 24 h exposure) | cytotoxic effect in words (from IC50 values) (HCT-116; 72 h after treatment) | cytotoxic effect in words (from IC50 values) (HCT-116; 24 and 72 h exposure, 0,1 to 500 µM)
1 | O=C(N/N=C/c1ccc(O)cc1O)c1ccccc1 [1g] | > 100 µM | > 500 µM | 316 µM | > 500 µM | > 500 µM |  |  |  |  | 
2 | O=C(N/N=C/c1ccc(O)cc1)c1ccccc1O [2c] | > 100 µM | > 500 µM | > 500 µM | > 500 µM | > 500 µM |  |  |  |  | 
3 | O=c1c(O)c(-c2ccc(O)c(O)c2)oc2cc(O)cc(O)c12 [Quercetin, quercetin, reference compound] | 1.9 ± 0.1 µM |  |  |  |  | 6.6 |  |  |  | 
4 | O=C(N/N=C/c1ccc(O)cc1)c1ccccc1 [1c] | > 100 µM | > 500 µM | > 500 µM | > 500 µM | > 500 µM |  |  |  |  | 
5 | COc1cccc(/C=N/NC(=O)c2ccc(O)cc2)c1O [3d] | > 100 µM | > 500 µM | 94.1 µM | > 500 µM | 213 µM |  | 2.3 |  |  | 
6 | O=C(N/N=C/c1ccc(O)c(O)c1)c1ccc(O)cc1 [3h] | 2.5 ± 0.1 µM | > 500 µM | 107 µM | > 500 µM | > 500 µM | 5 |  |  |  | 
7 | COc1cc(/C=N/NC(=O)c2cc(O)c(O)c(O)c2)cc(OC)c1O [5f] | 1.1 ± 0.1 µM | 86.9 µM | 43.6 µM | 84.3 µM | 40 µM | 11.4 | 0.92 | 0.97 |  | 
8 | O=C(N/N=C/c1ccc(O)c(O)c1)c1ccccc1 [1h] | 2.93 ± 0.1 µM | > 500 µM | > 500 µM | > 500 µM | > 500 µM | 4.3 |  |  |  | 
9 | COc1cc(/C=N/NC(=O)c2ccccc2)ccc1O [1e] | 31.4 ± 0.9 µM | > 500 µM | > 500 µM | > 500 µM | > 500 µM | 0.4 |  |  |  | 
10 | COc1cc(C(=O)N/N=C/c2ccccc2O)ccc1O [4b] | > 100 µM | 250 µM | 91.4 µM | > 500 µM | 290 µM |  | 3.17 | >2.00 |  | 
11 | COc1cc(/C=N/NC(=O)c2ccc(O)c(OC)c2)ccc1O [4e] | 22.1 ± 1.1 µM | > 500 µM | > 500 µM | > 500 µM | > 500 µM | 0.6 |  |  |  | 
12 | COc1cc(/C=N/NC(=O)c2cc(O)c(O)c(O)c2)ccc1O [5e] | 1.9 ± 0.1 µM | > 500 µM | 65.2 µM | > 500 µM | 45.8 µM | 6.6 | 0.70 |  |  | 
13 | COc1cc(/C=N/NC(=O)c2ccc(O)cc2)cc(OC)c1O [3f] | 16.6 ± 0.2 µM | > 500 µM | > 500 µM | > 500 µM | > 500 µM | 0.8 |  |  |  | 
14 | O=C(N/N=C/c1ccc(O)cc1O)c1ccccc1O [2g] | > 100 µM | > 500 µM | 61.2 µM | > 500 µM | > 500 µM |  |  |  |  | 
15 | COc1cc(C(=O)N/N=C/c2ccc(O)cc2)ccc1O [4c] | > 100 µM | > 500 µM | > 500 µM | > 500 µM | > 500 µM |  |  |  |  | 
16 | O=C(N/N=C/c1ccccc1O)c1ccccc1O [2b] | > 100 µM | 26.9 µM | 70.5 µM | > 500 µM | 233 µM |  | 3.30 | >18.59 |  | 
17 | CCc1c2c(nc3ccc(OC(=O)N4CCC(N5CCCCC5)CC4)cc13)-c1cc3c(c(=O)n1C2)COC(=O)[C@]3(O)CC [irinotecan, Irinotecan, reference compound] |  | > 500 µM | 101 µM | > 500 µM | 35.2 µM |  | 0.35 |  | moderate | 
18 | Nc1nc2c(c(=O)[nH]1)N(C=O)C(CNc1ccc(C(=O)N[C@@H](CCC(=O)O)C(=O)O)cc1)CN2 (some centres unmarked) [leucovorin, Leucovorin, reference compound] |  | > 500 µM | > 500 µM | > 500 µM | 180 µM |  | <0.36 |  |  | no effect
19 | O=C(N/N=C/c1ccccc1)c1ccccc1 [1a] | > 100 µM | > 500 µM | > 500 µM | > 500 µM | > 500 µM |  |  |  |  | 
20 | COc1cccc(/C=N/NC(=O)c2ccccc2)c1O [1d] | > 100 µM | > 500 µM | 66.6 µM | > 500 µM | 306 µM |  | 4.6 |  |  | 
21 | O=C(N/N=C/c1ccccc1)c1cc(O)c(O)c(O)c1 [5a] | 1.3 ± 0.1 µM | 247 µM | 63.5 µM | 175 µM | 59.2 µM | 9.6 | 0.93 | 0.71 |  | 
22 | CC(Cc1ccc(O)c(O)c1)C(C)Cc1ccc(O)c(O)c1 (centres unmarked) [NDGA, nordihydroguaiaretic acid, reference compound] | 1.7 ± 0.1 µM |  |  |  |  | 7.4 |  |  |  | 
